Source: ChEMBL document CHEMBL1141364, “Design and synthesis of indane-ureido-thioisobutyric acids: A novel class of PPARalpha agonists” (Bioorg Med Chem Lett, 2007)

Assays:
[1] = target: T1, Peroxisome proliferator-activated receptor alpha (Rattus norvegicus, UniProt P37230); assay: Agonist activity at rat PPARalpha in rat H4IIE cells assessed as gene induction; type: functional, cell-based
T1 sequence (P37230 whole entry): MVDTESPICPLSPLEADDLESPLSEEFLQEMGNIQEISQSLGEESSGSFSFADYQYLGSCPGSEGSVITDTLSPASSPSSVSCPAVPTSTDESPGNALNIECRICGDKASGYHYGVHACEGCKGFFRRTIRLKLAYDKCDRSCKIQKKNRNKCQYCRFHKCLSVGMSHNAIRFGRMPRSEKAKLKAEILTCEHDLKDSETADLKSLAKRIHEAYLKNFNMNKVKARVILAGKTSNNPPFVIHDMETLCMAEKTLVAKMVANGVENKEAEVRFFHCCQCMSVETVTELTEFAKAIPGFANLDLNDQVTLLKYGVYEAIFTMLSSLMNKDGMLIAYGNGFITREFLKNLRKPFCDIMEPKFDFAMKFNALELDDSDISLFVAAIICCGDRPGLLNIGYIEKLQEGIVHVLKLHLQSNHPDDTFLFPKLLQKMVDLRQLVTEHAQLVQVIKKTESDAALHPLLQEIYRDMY

[2] = Cmax in Sprague-Dawley rat at 3 mg/kg, iv or 30 mg/kg, po; type: ADME, organism-based; settings: in vivo
[3] = AUC in Sprague-Dawley rat at 3 mg/kg, iv or 30 mg/kg, po; type: ADME, organism-based; settings: plasma
[4] = Metabolic stability in human liver microsomes at 5 uM; type: ADME, Microsome
[5] = Total clearance in Sprague-Dawley rat at 3 mg/kg, iv or 30 mg/kg, po; type: ADME, organism-based; settings: in vivo
[6] = Oral bioavailability in Sprague-Dawley rat at 30 mg/kg; type: ADME, organism-based; settings: in vivo
[7] = Half life at terminal phase in Sprague-Dawley rat at 30 mg/kg, po; type: ADME, organism-based; design: dose 30 mg/kg, route oral; settings: in vivo, read-out: beta t1/2 (converted)

Compound | EC50 [1] [nM] | further results
CCCCCN(C(=O)NC1Cc2ccc(SC(C)(C)C(=O)O)cc2C1)c1ccc(OC(F)(F)F)cc1 (configuration not stated) | > 5000 | –
CC(C)CN(C(=O)Nc1ccc(OC(F)(F)F)cc1)C1Cc2ccc(SC(C)(C)C(=O)O)cc2C1 (configuration not stated) | 2340 | –
CC(C)(Sc1ccc2c(c1)CC(N(CCCC(F)(F)F)C(=O)Nc1ccc(OC(F)(F)F)cc1)C2)C(=O)O (configuration not stated) | 707 | –
CN(C(=O)Nc1ccc(OC(F)(F)F)cc1)C1Cc2ccc(SC(C)(C)C(=O)O)cc2C1 (configuration not stated) | 2850 | –
CCN(C(=O)N(C)c1ccc(OC(F)(F)F)cc1)C1Cc2ccc(SC(C)(C)C(=O)O)cc2C1 (configuration not stated) | > 1000 | –
CC(C)N(C(=O)Nc1ccc(OC(F)(F)F)cc1)C1Cc2ccc(SC(C)(C)C(=O)O)cc2C1 (configuration not stated) | > 5000 | –
CC(C)(Oc1ccc(C2CC2(Cl)Cl)cc1)C(=O)O (configuration not stated) [CIPROFIBRATE] | > 10000 | –
CCCCCCCN(C(=O)Nc1ccccc1C)C1Cc2ccc(SC(C)(C)C(=O)O)cc2C1 (configuration not stated) | 7540 | –
CCCCCCCN(C(=O)Nc1cccc(C(F)(F)F)c1)C1Cc2ccc(SC(C)(C)C(=O)O)cc2C1 (configuration not stated) | 2730 | –
CCN(C(=O)Nc1ccc(OC(F)(F)F)c(Br)c1)C1Cc2ccc(SC(C)(C)C(=O)O)cc2C1 (configuration not stated) | > 3000 | –
CCCCCCCN(C(=O)Nc1ccc(OC(F)(F)F)cc1)[C@H]1Cc2ccc(SC(C)(C)C(=O)O)cc2C1 | > 13000 | –
CCCCCCCN(C(=O)Nc1ccccc1F)C1Cc2ccc(SC(C)(C)C(=O)O)cc2C1 (configuration not stated) | > 10000 | –
CCCCCCCN(C(=O)Nc1ccccc1)C1Cc2ccc(SC(C)(C)C(=O)O)cc2C1 (configuration not stated) | > 10000 | –
CCCCCCCN(C(=O)Nc1ccccc1OC(F)(F)F)C1Cc2ccc(SC(C)(C)C(=O)O)cc2C1 (configuration not stated) | 4990 | –
CCN(C(=O)Nc1ccc(OC(F)(F)F)cc1Br)C1Cc2ccc(SC(C)(C)C(=O)O)cc2C1 (configuration not stated) | > 1000 | –
CCN(C(=O)Nc1ccc(OC(F)(F)F)c(Cl)c1)C1Cc2ccc(SC(C)(C)C(=O)O)cc2C1 (configuration not stated) | > 3000 | –
CC(C)(Sc1ccc2c(c1)C[C@@H](NC(=O)Nc1ccc(OC(F)(F)F)cc1)C2)C(=O)O | 1110 | –
CCCCCCCCN(C(=O)Nc1ccc(OC(F)(F)F)cc1)C1Cc2ccc(SC(C)(C)C(=O)O)cc2C1 (configuration not stated) | 1030 | –
CCCCCCCN(C(=O)Nc1ccccc1C(F)(F)F)C1Cc2ccc(SC(C)(C)C(=O)O)cc2C1 (configuration not stated) | 6390 | –
CCCCCCCN(C(=O)Nc1ccc(OC)cc1)C1Cc2ccc(SC(C)(C)C(=O)O)cc2C1 (configuration not stated) | 910 | –
CCCCCCCN(C(=O)Nc1cccc(OC)c1)C1Cc2ccc(SC(C)(C)C(=O)O)cc2C1 (configuration not stated) | 1110 | –
CCCCCCCN(C(=O)Nc1ccc(F)cc1F)C1Cc2ccc(SC(C)(C)C(=O)O)cc2C1 (configuration not stated) | > 10000 | –
CCCCCCCN(C(=O)Nc1ccccc1SC(F)(F)F)C1Cc2ccc(SC(C)(C)C(=O)O)cc2C1 (configuration not stated) | 1960 | –
CCCCCCCN(C(=O)Nc1cccc(F)c1)C1Cc2ccc(SC(C)(C)C(=O)O)cc2C1 (configuration not stated) | 2670 | –
CCCCCCCN(C(=O)Nc1ccc(C(F)(F)F)cc1)C1Cc2ccc(SC(C)(C)C(=O)O)cc2C1 (configuration not stated) | 1270 | –

These reach a lower EC50 [1]. Values come first.

EC50 [1] [nM] | Compound | further results
210 | CCCCCCCN(C(=O)Nc1ccc(SC(F)(F)F)cc1)C1Cc2ccc(SC(C)(C)C(=O)O)cc2C1 (configuration not stated) | –
425 | COCCN(C(=O)Nc1ccc(OC(F)(F)F)cc1)C1Cc2ccc(SC(C)(C)C(=O)O)cc2C1 (configuration not stated) | –
46 | CCCCCN(C(=O)Nc1ccc(SC(F)(F)F)cc1)C1Cc2ccc(SC(C)(C)C(=O)O)cc2C1 (configuration not stated) | Cmax [2]: 8020 ng/mL; AUC [3]: 54700 ng·h/mL; half-life at 5 µM [4]: 1.27 h; clearance [5]: 0.55 mL/min/kg; bioavailability [6]: 59%; half-life [7]: 4.05 h
219 | CCCCCCN(C(=O)Nc1ccc(N(C)C)cc1)C1Cc2ccc(SC(C)(C)C(=O)O)cc2C1 (configuration not stated) | –
166 | CCCCCCN(C(=O)Nc1ccc(OC(F)(F)F)cc1)C1Cc2ccc(SC(C)(C)C(=O)O)cc2C1 (configuration not stated) | –
180 | CCCCCCN(C(=O)Nc1ccc(C(C)C)cc1)C1Cc2ccc(SC(C)(C)C(=O)O)cc2C1 (configuration not stated) | –
419 | CCCCCCCN(C(=O)Nc1ccc(SC)cc1)C1Cc2ccc(SC(C)(C)C(=O)O)cc2C1 (configuration not stated) | –
260 | CCCCN(C(=O)Nc1ccc(C(C)C)cc1)C1Cc2ccc(SC(C)(C)C(=O)O)cc2C1 (configuration not stated) | –
249 | CCCCCCN(C(=O)Nc1ccc(SC(F)(F)F)cc1)C1Cc2ccc(SC(C)(C)C(=O)O)cc2C1 (configuration not stated) | –
117 | CCN(C(=O)Nc1ccc(N(C)C)cc1)C1Cc2ccc(SC(C)(C)C(=O)O)cc2C1 (configuration not stated) | Cmax [2]: 72300 ng/mL; AUC [3]: 273000 ng·h/mL; half-life at 5 µM [4]: 1.33 h; clearance [5]: 0.11 mL/min/kg; bioavailability [6]: 58%; half-life [7]: 4.46 h
141 | CCCCCN(C(=O)Nc1ccc(N(C)C)cc1)C1Cc2ccc(SC(C)(C)C(=O)O)cc2C1 (configuration not stated) | Cmax [2]: 20800 ng/mL; AUC [3]: 63600 ng·h/mL; half-life at 5 µM [4]: 1.57 h; clearance [5]: 0.47 mL/min/kg; bioavailability [6]: 62%; half-life [7]: 2.6 h
294 | CCCCCCCN(C(=O)Nc1ccc(OC(F)(F)F)cc1)C1Cc2ccc(SC(C)(C)C(=O)O)cc2C1 (configuration not stated) | –
252 | CCCCCCCN(C(=O)Nc1ccc(N(C)C)cc1)C1Cc2ccc(SC(C)(C)C(=O)O)cc2C1 (configuration not stated) | –
23 | CCN(C(=O)Nc1ccc(SC(F)(F)F)cc1)C1Cc2ccc(SC(C)(C)C(=O)O)cc2C1 (configuration not stated) | Cmax [2]: 5670 ng/mL; AUC [3]: 101000 ng·h/mL; half-life at 5 µM [4]: 1.67 h; clearance [5]: 0.3 mL/min/kg; bioavailability [6]: 100%; half-life [7]: 3.84 h
598 | CCN(C(=O)Nc1ccc(OC(F)(F)F)cc1C)C1Cc2ccc(SC(C)(C)C(=O)O)cc2C1 (configuration not stated) | –
229 | CCCCCCCN(C(=O)Nc1ccc(C(C)C)cc1)C1Cc2ccc(SC(C)(C)C(=O)O)cc2C1 (configuration not stated) | –
146 | CC(C)(Sc1ccc2c(c1)C[C@H](NC(=O)Nc1ccc(OC(F)(F)F)cc1)C2)C(=O)O | –
165 | CCN(C(=O)Nc1ccc(OC(F)(F)F)cc1)[C@H]1Cc2ccc(SC(C)(C)C(=O)O)cc2C1 | –
386 | CC(C)CCN(C(=O)Nc1ccc(OC(F)(F)F)cc1)C1Cc2ccc(SC(C)(C)C(=O)O)cc2C1 (configuration not stated) | –
195 | CCCCN(C(=O)Nc1ccc(OC(F)(F)F)cc1)C1Cc2ccc(SC(C)(C)C(=O)O)cc2C1 (configuration not stated) | –
96 | CC(C)(Sc1ccc2c(c1)CC(NC(=O)Nc1ccc(OC(F)(F)F)cc1)C2)C(=O)O (configuration not stated) | –
159 | CCCCCN(C(=O)Nc1ccc(C(C)C)cc1)C1Cc2ccc(SC(C)(C)C(=O)O)cc2C1 (configuration not stated) | –
105 | CCCCCN(C(=O)Nc1ccc(OC(F)(F)F)cc1)C1Cc2ccc(SC(C)(C)C(=O)O)cc2C1 (configuration not stated) | Cmax [2]: 16600 ng/mL; AUC [3]: 121000 ng·h/mL; half-life at 5 µM [4]: 1.67 h; clearance [5]: 0.25 mL/min/kg; bioavailability [6]: 24%; half-life [7]: 7.19 h
561 | CCCCN(C(=O)Nc1ccc(N(C)C)cc1)C1Cc2ccc(SC(C)(C)C(=O)O)cc2C1 (configuration not stated) | –
32 | CCN(C(=O)Nc1ccc(C(C)C)cc1)C1Cc2ccc(SC(C)(C)C(=O)O)cc2C1 (configuration not stated) | Cmax [2]: 32400 ng/mL; AUC [3]: 37100 ng·h/mL; half-life at 5 µM [4]: 0.2 h; clearance [5]: 0.81 mL/min/kg; bioavailability [6]: 34%; half-life [7]: 2.92 h
169 | CCCCCCCN(C(=O)Nc1ccc(OC(F)(F)F)cc1)[C@@H]1Cc2ccc(SC(C)(C)C(=O)O)cc2C1 | –
